For data set [1] the following is noted: cited from earlier work.
Data set [2] is described as follows: Trial 1: safety and tolerability, treatment-emergent adverse events. The data set is classed as in vivo, human. The conditions noted are these: after warfarin 25 mg, day 9, one subject, moderate severity, possibly related to warfarin.
For data set [3] the following is noted: cited from earlier work. The source holds these as a separate data set.
The nature of data set [4]: Trial 2. In kind it is in vivo, human.
The nature of data set [5]: Trial 1.
Setting [6] is: trial 2, oral semaglutide 20 mg once daily.

The text below walks through data of publication PMC6719321 (Clinical Pharmacokinetics, 2019).

On to `CC(=O)CC(c1ccccc1)c1c(O)c2ccccc2oc1=O` (stereo not drawn) [Warfarin, warfarin], for which the absorption entry in data set [1] (oral) was “completely absorbed”. For the same compound, the “INRmax of the subject with a bleeding event (epistaxis)” value in data set [2] stood at 2.53.

On to `CN(C)C(=N)N=C(N)N` [Metformin, metformin], for which the tmax generally reported in data set [1] was 2.5 h. Besides, in data set [3] (steady-state metformin), the “Increase in AUC on coadministration of multiple doses of dulaglutide” value is recorded as “up to 15%”. In data set [4] (metformin steady state, morning dose fasting), the “tmax in trial 2” value lay within 0.8 to 1.0 h.

`CC[C@H](C)[C@H](NC(=O)[C@H](Cc1ccccc1)NC(=O)[C@H](CCC(=O)O)NC(=O)[C@H](CCCCNC(=O)COCCOCCNC(=O)COCCOCCNC(=O)CC[C@H](NC(=O)CCCCCCCCCCCCCCCCC(=O)O)C(=O)O)NC(=O)[C@H](C)NC(=O)[C@H](C)NC(=O)[C@H](CCC(N)=O)NC(=O)CNC(=O)[C@H](CCC(=O)O)NC(=O)[C@H](CC(C)C)NC(=O)[C@H](Cc1ccc(O)cc1)NC(=O)[C@H](CO)NC(=O)[C@H](CO)NC(=O)[C@@H](NC(=O)[C@H](CC(=O)O)NC(=O)[C@H](CO)NC(=O)[C@@H](NC(=O)[C@H](Cc1ccccc1)NC(=O)[C@@H](NC(=O)CNC(=O)[C@H](CCC(=O)O)NC(=O)C(C)(C)NC(=O)[C@@H](N)Cc1cnc[nH]1)[C@@H](C)O)[C@@H](C)O)C(C)C)C(=O)N[C@@H](C)C(=O)N[C@@H](Cc1c[nH]c2ccccc12)C(=O)N[C@@H](CC(C)C)C(=O)N[C@H](C(=O)N[C@@H](CCCNC(=N)N)C(=O)NCC(=O)N[C@@H](CCCNC(=N)N)C(=O)NCC(=O)O)C(C)C` [semaglutide]: the “Mean AUC0–24h at steady state” value in data set [5] (trial 1, oral semaglutide 20 mg once daily, after last dose (day 84)) was found to be 0.76196 µM·h. The “mean t½” value in data set [5] (trial 1, oral semaglutide 20 mg once daily, steady state) turned out to be 162 h. Moreover, in data set [4] (setting [6]), the “AUC0–24h at steady state, range of geometric means” value lay in the range of 0.622 to 0.719 µM·h and the Cmax (usually the maximum level reached in the sampled fluid or tissue) at steady state, range of geometric means was 31.0 to 35.8 nM.

`C[C@H]1O[C@@H](O[C@H]2[C@@H](O)C[C@H](O[C@H]3[C@@H](O)C[C@H](O[C@H]4CC[C@@]5(C)[C@H](CC[C@@H]6[C@@H]5C[C@@H](O)[C@]5(C)[C@@H](C7=CC(=O)OC7)CC[C@]65O)C4)O[C@@H]3C)O[C@@H]2C)C[C@H](O)[C@@H]1O` [Digoxin, digoxin]: in data set [1] (oral), the “absorption (incomplete)” value is listed as ~ 70%. Moreover, in data set [1] (used to set the length of the washout periods, no reference given), the half-life – broadly, how long it takes for the measured level to halve – was 30 to 50 h. In addition, the “Reduction of Cmax on coadministration with liraglutide” value in data set [3] is 27–38%. Also, in data set [3] (digoxin PK), the “AUC on coadministration with exenatide” value was “unchanged” and the “Decrease of Cmax on coadministration with exenatide” value was 17%. This compound returned a tmax in data set [4] (digoxin 500 μg single dose alone, N = 31, median (minimum, maximum)) of 1.0 h. Further, the “mean t½” value in data set [4] (digoxin single dose, alone and with oral semaglutide (both conditions)) lay in the range of 42 to 43 h.

For “subcutaneous semaglutide: semaglutide as once-weekly subcutaneous injection”, the “mean t½ for subcutaneous semaglutide” value in data set [1] was 156 to 160 h.

In turn, `NCCCC[C@H](N[C@@H](CCc1ccccc1)C(=O)O)C(=O)N1CCC[C@H]1C(=O)O` [Lisinopril, lisinopril] gave a tmax in data set [5] (lisinopril 20 mg single dose alone, N = 52, median (minimum, maximum)) of 6.0 h.
